PMC4766415 (Nature Communications, 2016)

Experiments:
[1] = cited from earlier work
WT-TTR = WT-TTR (Homo sapiens, UniProt P02766); assay: TTR stabilization in urea, Trp fluorescence; assay type: biochemical; set-up: made in house; host or cells: Escherichia coli BL21(DE3), pET expression system; settings: 72 h; for WT-tetramer unfolded: WT-TTR 1.8 μM, 6.5 M urea, RT
Procedure: In urea, TTR tetramer dissociation precedes monomer unfolding, a process easily tracked by monitoring changes in intrinsic Trp fluorescence.
At high denaturant concentrations, the rate of TTR tetramer dissociation is linked irreversibly to monomer unfolding. […] Intrinsic fluorescence was recorded after 72 h.
Urea was added to attain a range of final concentrations (0–9 M) and the samples were incubated for 72 h at RT. Fluorescence intensity measurements were performed on a Jasco FP-8200 Spectrofluorometer. Trp fluorescence was obtained by exciting the samples at 280 nm and emission was collected from 300 to 400 nm. The fluorescence intensity ratio 355/335 nm was plotted against urea concentration as a sensor of folded protein, which for TTR in urea is equivalent to tetramer integrity. […] The fraction of unfolded TTR was measured and calculated as above. The TTR fluorescence after incubation at RT for 72 h in 9 M urea was considered to correspond to that of the unfolded state.

A25T-TTR [2] = test system: T1, A25T-TTR; assay: A25T-TTR sedimentation assay (total protein precipitation); assay type: biochemical, human; settings: four molar equivalents (15 μM); pH 5.0, 37 °C, 22 h
T1 construct: TTR is composed of four identical 127 amino-acid residue β-sheet-rich subunits; made in house; host or cells: Escherichia coli BL21(DE3), pET expression system
Procedure: TTR aggregation can also be measured by sedimentation using centrifugation. […] TTR aggregation induction was performed as described above. […] The supernatant was carefully removed, and 400 μl of Guanidine (8 M) was added to each sample and subsequently incubated for 1 h to unfold the aggregated TTR. The amount of resolubilized TTR was measured by absorbance at 280 nm. The percentage of TTR precipitated was calculated with respect to total (soluble) TTR at time 0. […]
aggregation as measured by total protein precipitation. […]
aggregation conditions (pH 4.4 and 37°C) for 72 hours. The samples were then centrifuged at 20,000 x g for 1 h at 4 °C and the supernatants (soluble protein) were carefully removed. The precipitated TTR from each sample was resolubilized by addition of 8 M guanidine solution followed by 1 h incubation at RT. TTR concentration was measured by spectroscopy at 280 nm and total amount of resolubilized TTR was calculated. The data is presented as % insoluble […]
was performed for A25T-TTR at pH 5.0 and 37°C for 22 hours . […]

[3] = Tolcapone quantification in human plasma after oral administration (UPLC-MS/MS); assay type: in vivo; settings: 200 mg
Procedure: TTR stabilization in vivo was measured using an immunoturbidimetric assay as in Fig. 4c. The fraction of initial tetramer concentration (FOI) was determined in triplicate for each sample (FOI=TTR tetramer after 48 h urea treatment/TTR tetramer at time 0 in the presence of urea).
Blood was collected 30 min before administration and 2 h after the dose in BD Vacutainer tubes with Lithium-Heparin and gel for plasma separation, following the manufacturer's instructions. Briefly, after gently mixing the tubes by inversion, blood was centrifuged at 1,300g for 10 min at 20 °C. Supernatants were collected and immediately stored at −80 °C until analysis.
Extracted samples were analysed on a Waters Acquity UPLC coupled with a Waters Xevo TQ MS triple quadrupole mass spectrometer. Chromatographic separation was achieved on an Acquity HSS C18 column using a gradient elution with the mobile phase of methanol and 0.1% formic acid in water.

A25T-TTR [4] = assay: A25T-TTR aggregation inhibition, turbidity, pH 5.0; settings: four molar equivalents (15 μM); A25T-TTR 3.6 μM; pH 5.0, 37 °C, 22 h

WT-tetramer unfolded (WT-TTR; 2 molar equivalents): 33.8%
WT-tetramer unfolded (WT-TTR; 4 molar equivalents): 8%
TTR remaining in the native state (WT-TTR; 10 molar equivalents, 8 M urea): more than 80%
concentration at 2 h [3]: 13.6 µM
SMILES: Cc1ccc(C(=O)c2cc(O)c(O)c([N+](=O)[O-])c2)cc1 [tolcapone]
blood–brain barrier crossing [1]: able to cross the blood–brain barrier
reduction of A25T-TTR aggregation (sedimentation, Supplementary Fig. 1b) (A25T-TTR [2]): 50%
reduction of A25T-TTR aggregation (turbidity, Fig. 1d) (A25T-TTR [4]): 40%
